Data on four molecules can be found in ChEMBL document CHEMBL1201862, “PubChem BioAssay data set” (2004).

Molecules are shown by their SMILES. Active and inactive are the calls of the source.

What all share (format): functional
For assay [1], the target named is T1, Apoptotic protease-activating factor 1 (Homo sapiens, UniProt O14727).
T1 sequence (O14727 whole entry): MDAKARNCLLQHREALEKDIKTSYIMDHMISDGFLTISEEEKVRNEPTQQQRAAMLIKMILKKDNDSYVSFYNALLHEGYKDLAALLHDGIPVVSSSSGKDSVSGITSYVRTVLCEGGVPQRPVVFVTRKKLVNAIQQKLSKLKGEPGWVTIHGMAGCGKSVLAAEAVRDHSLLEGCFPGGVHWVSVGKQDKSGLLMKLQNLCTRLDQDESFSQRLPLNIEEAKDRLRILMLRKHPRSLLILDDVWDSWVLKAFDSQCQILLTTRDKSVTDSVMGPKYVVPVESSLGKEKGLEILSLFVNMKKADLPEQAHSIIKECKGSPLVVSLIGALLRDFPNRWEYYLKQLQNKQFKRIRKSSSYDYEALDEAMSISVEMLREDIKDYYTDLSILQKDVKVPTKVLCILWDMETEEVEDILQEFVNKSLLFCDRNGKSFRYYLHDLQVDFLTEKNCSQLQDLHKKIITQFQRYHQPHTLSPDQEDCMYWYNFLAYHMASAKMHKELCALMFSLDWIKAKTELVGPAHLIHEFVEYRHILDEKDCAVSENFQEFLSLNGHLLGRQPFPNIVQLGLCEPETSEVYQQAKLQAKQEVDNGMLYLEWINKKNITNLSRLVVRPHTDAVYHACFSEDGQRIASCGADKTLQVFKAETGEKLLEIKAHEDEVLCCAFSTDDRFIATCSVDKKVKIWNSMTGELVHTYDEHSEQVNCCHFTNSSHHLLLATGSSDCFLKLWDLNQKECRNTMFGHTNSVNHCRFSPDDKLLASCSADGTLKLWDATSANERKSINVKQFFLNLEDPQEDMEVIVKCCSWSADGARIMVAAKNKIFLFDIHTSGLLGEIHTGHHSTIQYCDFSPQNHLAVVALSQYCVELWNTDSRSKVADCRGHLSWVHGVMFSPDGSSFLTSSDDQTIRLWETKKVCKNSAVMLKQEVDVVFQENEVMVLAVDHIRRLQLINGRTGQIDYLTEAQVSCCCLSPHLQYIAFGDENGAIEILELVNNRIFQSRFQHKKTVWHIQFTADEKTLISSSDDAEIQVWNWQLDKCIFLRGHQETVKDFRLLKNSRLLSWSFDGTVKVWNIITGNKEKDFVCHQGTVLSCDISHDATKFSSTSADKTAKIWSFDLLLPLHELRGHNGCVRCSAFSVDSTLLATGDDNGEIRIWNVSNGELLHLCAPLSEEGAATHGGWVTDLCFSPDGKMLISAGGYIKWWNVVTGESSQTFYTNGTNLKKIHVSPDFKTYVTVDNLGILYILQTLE

Assay [2] has as its target T2, Replicative DNA helicase DnaB (Mycobacterium tuberculosis, UniProt P9WMR3).
T2 sequence (P9WMR3 whole entry): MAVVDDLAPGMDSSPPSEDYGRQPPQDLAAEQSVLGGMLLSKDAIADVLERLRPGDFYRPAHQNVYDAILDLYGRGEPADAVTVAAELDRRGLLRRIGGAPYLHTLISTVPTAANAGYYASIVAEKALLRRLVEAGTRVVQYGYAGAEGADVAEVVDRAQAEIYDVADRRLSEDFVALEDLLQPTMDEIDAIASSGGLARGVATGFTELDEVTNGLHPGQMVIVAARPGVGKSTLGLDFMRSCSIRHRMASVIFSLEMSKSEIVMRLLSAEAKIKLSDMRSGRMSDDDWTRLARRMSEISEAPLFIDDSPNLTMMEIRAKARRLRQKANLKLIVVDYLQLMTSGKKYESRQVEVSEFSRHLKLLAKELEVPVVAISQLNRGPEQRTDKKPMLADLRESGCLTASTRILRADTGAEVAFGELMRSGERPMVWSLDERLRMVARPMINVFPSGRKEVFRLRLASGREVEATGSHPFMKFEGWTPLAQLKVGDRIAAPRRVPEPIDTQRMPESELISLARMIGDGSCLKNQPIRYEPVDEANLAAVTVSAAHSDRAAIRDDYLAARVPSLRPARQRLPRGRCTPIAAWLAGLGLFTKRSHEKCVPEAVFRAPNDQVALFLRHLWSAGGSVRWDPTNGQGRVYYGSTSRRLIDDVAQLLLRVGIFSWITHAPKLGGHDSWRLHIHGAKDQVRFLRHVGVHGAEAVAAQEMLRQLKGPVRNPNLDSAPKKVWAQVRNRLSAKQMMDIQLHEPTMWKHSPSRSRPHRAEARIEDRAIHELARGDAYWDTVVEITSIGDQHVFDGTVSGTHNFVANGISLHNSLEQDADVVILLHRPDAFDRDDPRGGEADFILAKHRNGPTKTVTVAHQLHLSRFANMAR
In words: DnaB intein splicing inhibitors, dose response, biochemical, cell-free fluorescence (AID 449749).

A further assay has as its target T3, Protein RecA (Mycobacterium tuberculosis, UniProt P9WHJ3).
T3 sequence (P9WHJ3 whole entry): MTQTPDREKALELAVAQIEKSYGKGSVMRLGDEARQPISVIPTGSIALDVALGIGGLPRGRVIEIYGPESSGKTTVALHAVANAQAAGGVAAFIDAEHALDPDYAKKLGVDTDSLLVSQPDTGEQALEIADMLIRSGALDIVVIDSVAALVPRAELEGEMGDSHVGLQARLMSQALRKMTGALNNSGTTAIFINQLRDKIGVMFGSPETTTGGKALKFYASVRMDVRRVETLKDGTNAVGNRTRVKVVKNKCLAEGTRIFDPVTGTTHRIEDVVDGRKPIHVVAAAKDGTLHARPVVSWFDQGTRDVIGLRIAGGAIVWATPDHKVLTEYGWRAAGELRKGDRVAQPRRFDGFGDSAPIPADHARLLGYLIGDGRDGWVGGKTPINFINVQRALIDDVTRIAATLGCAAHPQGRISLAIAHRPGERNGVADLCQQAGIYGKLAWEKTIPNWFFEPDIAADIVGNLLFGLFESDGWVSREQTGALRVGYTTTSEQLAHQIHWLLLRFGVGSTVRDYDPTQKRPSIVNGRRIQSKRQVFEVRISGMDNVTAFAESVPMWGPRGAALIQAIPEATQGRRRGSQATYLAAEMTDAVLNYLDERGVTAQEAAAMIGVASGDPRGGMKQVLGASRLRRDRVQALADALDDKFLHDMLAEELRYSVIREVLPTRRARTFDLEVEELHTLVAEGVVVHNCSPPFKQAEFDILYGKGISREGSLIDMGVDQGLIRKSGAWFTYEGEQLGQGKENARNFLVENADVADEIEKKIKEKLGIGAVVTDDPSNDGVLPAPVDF
In words: Fluorescence Cell-Free Homogeneous Dose Retest to Identify Inhibitors of RecA-Intein Splicing Activity. [Related pubchem assays (depositor defined):AID2097, AID2223, AID489010, AID492950].

Broadly, the IC50 is the point on the concentration scale where inhibition reaches its midpoint. A word on the AC50: it is the concentration at which the activity in the assay is half-maximal. The term EC50 denotes the concentration that produces a half-maximal response. As for `O=C1C=C(Nc2ccccc2C(=O)O)c2ccccc2C1=O`, in assay [1], the IC50 was 3.84 µM (active). Further, the concentration at half-maximal activity (AC50) in assay [2] is 2.21 µM (active). On Protein RecA, the EC50 was 2.34 µM (active).

For `CC(C)(C)c1cc[n+](C2=C([N-]S(=O)(=O)c3ccccc3)C(=O)c3ccccc3C2=O)cc1`, the half-maximal activity concentration (AC50) in assay [2] was 9.28 µM (active). For the same molecule, the EC50 at Protein RecA was 9.39 µM (active).

`O=C1C(=O)c2ccccc2C(O)=C1CCCCl`: in assay [2], the AC50 is 6.36 µM (active). The EC50 on Protein RecA is 6.39 µM (active).

Regarding `COc1ccc(NC(=S)Nc2ccc3nsnc3c2)cc1`, in assay [1], the IC50 is 10.8 µM (active). For the same molecule, the AC50 in assay [2] was > 120 µM (inactive). Besides, the EC50 at Protein RecA was 17.5 µM (active).
